In one assay the target is T1, RUVBL2 (Homo sapiens, UniProt Q9Y230).
T1 construct: recombinant from E. coli BL21(DE3) pRIL
As to the kind of experiment: ATP/NADH coupled ATPase assay. In kind it is biochemical.

Another assay has as its target T2, ScRvb2 (Saccharomyces cerevisiae, UniProt Q12464).
T2 construct: gene RVB2
The assay is described as follows: ATP/NADH coupled ATPase assay. The following applies: 10 µM protomer, pH 7.5, 37 °C.

T2 sequence (Q12464 whole entry): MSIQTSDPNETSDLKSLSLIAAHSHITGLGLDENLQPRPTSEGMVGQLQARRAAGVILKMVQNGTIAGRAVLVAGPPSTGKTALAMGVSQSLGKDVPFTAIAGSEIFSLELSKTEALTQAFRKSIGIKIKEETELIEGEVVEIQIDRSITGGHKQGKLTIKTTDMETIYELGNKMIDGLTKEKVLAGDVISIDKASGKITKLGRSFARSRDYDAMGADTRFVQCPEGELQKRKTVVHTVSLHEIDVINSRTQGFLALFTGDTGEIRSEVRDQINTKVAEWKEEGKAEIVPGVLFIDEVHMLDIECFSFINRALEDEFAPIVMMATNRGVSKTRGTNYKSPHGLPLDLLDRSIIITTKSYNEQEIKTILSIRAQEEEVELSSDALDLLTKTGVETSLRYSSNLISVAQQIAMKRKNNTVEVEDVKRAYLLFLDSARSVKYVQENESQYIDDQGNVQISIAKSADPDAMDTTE
T1 sequence (Q9Y230 whole entry): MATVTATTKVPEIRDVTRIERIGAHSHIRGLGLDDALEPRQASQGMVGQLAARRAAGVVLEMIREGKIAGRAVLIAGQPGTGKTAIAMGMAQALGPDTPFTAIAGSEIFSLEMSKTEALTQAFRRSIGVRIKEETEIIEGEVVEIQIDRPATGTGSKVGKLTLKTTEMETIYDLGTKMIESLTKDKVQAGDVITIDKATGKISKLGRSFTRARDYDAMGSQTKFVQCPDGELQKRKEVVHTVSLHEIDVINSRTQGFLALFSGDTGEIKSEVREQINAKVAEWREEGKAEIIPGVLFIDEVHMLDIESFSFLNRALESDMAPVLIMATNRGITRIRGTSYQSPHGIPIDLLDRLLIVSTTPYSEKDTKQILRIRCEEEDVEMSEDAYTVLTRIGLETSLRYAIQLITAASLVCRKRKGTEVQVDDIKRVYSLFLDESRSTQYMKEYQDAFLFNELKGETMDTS

What is called inhibition is the percentage by which the read-out fell short of the control. Take `CNC(=O)c1cc(Oc2ccc(NC(=O)Nc3ccc(Cl)c(C(F)(F)F)c3)c(F)c2)ccn1` [regorafenib]: the inhibition at 15 µM on RUVBL2 was ~40%.
For `CNC(=O)c1cc(Oc2ccc(NC(=O)Nc3ccc(Cl)c(C(F)(F)F)c3)cc2)ccn1` [sorafenib], the “% inhibition at 30 μM” value at ScRvb2 is given as “sorafenib can inhibit RUVBL2 from Saccharomyces cerevisiae (named ScRvb2) although less efficiently”.

(Values after article PMC7226205 (Biomolecules, 2020).)
